Measured values as given in patent publication US9839618B2, “Compositions and methods relating to proliferative diseases” (The Penn State Research Foundation, priority 2010, dated 2017).
“Also recorded” adds a separate entry of the source.

System: STAT signaling pathway
Test: Western blot, STAT pathway
Type: cell-based, human
Conditions: for STAT3 pathway (pSTAT3): Example 8, 24 hours, actives 3-5 μmol/L, inactives 30-50 μmol/L
Description: For Western blot analysis, cell lysates are harvested by addition of RIPA lysis buffers containing 25 mM Tris.HCl pH 7.6, 150 mM NaCl, 1% NP-40, 1% sodium deoxycholate, 0.1% SDS, 10 mM EDTA, 1 mM sodium orthovanadate, 0.1 mM sodium molybdate, 1 mM phenylmethylsulfonyl fluoride, 20 μg/mL aprotinin, and 5 μg/mL leupeptin. The cell lysates are harvested and processed as described in Madhunapantula, S. V. et al., Cancer Res, 2007, 67:3626-36. Treatment conditions: 1-1.5×10^6 melanoma cells are plated in 100 mm culture dishes, 48 h later, treated with leelamine (3-6 μmol/L) for 3 to 24 hours. Protein lysates are collected for Western blotting. The blots are probed with antibodies according to each supplier's recommendations: antibodies to total Akt, phospho-Akt (Ser473), total PRAS40, phospho-PRAS40 (Thr246), total CREB, phospho-CREB (Ser133), phospho-p70 S6 kinase (Thr389), total Erk1/2, phospho-Erk1/2 (Thr202/Tyr 204), total CDK2, phospho-CDK2 (Thr160), phospho-Rb (Ser807/811), total Stat, phospho-Stat1 (Tyr701), Phospho-Stat-2(Tyr690), Phospho-Stat3(Ser727), phospho-Stat3(Tyr705) and cleaved PARP from Cell Signaling Technology (Danvers, Mass.); total PRAS40 from Invitrogen (Carlsbad, Calif.); cyclin D1, Bcl-2, α-enolase and secondary antibodies conjugated with horseradish peroxidase from Santa Cruz Biotechnology (Santa Cruz, Calif.). Immunoblots are developed using the enhanced chemiluminescence (ECL) detection system (Thermo Fisher Scientific, Rockford, Ill.). Intensity of protein bands is quantified using ImageJ software.
For Western blot analysis, 1×10^6 melanoma cells are plated in 100 mm culture dishes, 48 hours later, treated with empty liposomes or Nanolipolee-007 (3-6 μmol/L) for 3 to 24 hours. Protein lysates collected for Western blotting. The cell lysates are harvested in an RIPA lysis buffer containing protease and phosphatases inhibitors (Pierce Biotechnology, Rockford, Ill.). Blots are probed with antibodies according to each supplier's recommendations: antibodies to total Akt, phospho-Akt (Ser473), total PRAS40, phospho-PRAS40 (Thr246), total Bad, pBad (Ser 112) total Erk1/2, phospho-Erk1/2 (Thr202/Tyr 204), total CDK2, phospho-CDK2 (Thr160), phospho-Rb (Ser807/811), total Stat, phospho-Stat3 (Tyr705), caspase-3 and cleaved PARP from Cell Signaling Technology (Danvers, Mass.); total PRAS40 from Invitrogen (Carlsbad, Calif.); cyclin D1, α-enolase and secondary antibodies conjugated with horseradish peroxidase from Santa Cruz Biotechnology (Santa Cruz, Calif.). Immunoblots are developed using the enhanced chemiluminescence (ECL) detection system (Thermo Fisher Scientific, Rockford, Ill.). Intensity of protein bands is quantified using ImageJ software.
Cell lysates are harvested by addition of RIPA lysis buffers containing 25 mM Tris*HCl pH 7.6, 150 mM NaCl, 1% NP-40, 1% sodium deoxycholate, 0.1% SDS, 10 mM EDTA, 1 mM sodium orthovanadate, 0.1 mM sodium molybdate, 1 mM phenylmethylsulfonyl fluoride, 20 μg/mL aprotinin, and 5 μg/mL leupeptin. The cell lysates are harvested and processed as described. […] Protein lysates collected for Western blotting. […] Intensity of protein bands is quantified using ImageJ software. […]

CC(C)c1ccc2c(c1)CCC1[C@](C)(CNC(=O)C(F)(F)F)CCC[C@]21C (stereo partly drawn) [Compound 5a, N-{[(1R,4aS)-1,4a-dimethyl-7-(propan-2-yl)-1,2,3,4,4a,9,10,10a-octahydrophenanthren-1-yl]methyl}-2,2,2-trifluoroacetamide]
STAT3 pathway (pSTAT3): decrease pSTAT3 expression at all doses

CC(C)c1ccc2c(c1)CCC1[C@](C)(CN)CCC[C@]21C (stereo partly drawn) [Leelamine, [(1R,4aS)-1,4a-dimethyl-7-(propan-2-yl)-1,2,3,4,4a,9,10,10a-octahydrophenanthren-1-yl]methanamine]
STAT pathway signaling (3 to 6 μmol/L for 3 to 24 hours, UACC 903 and 1205 Lu): decrease activity
STAT3 pathway (pSTAT3): completely blocked pSTAT3 expression; also recorded: decrease pSTAT3 expression at all doses

CC(C)C1=CC2=CCC3[C@](C)(CN)CCC[C@]3(C)C2CC1 (stereo partly drawn) [Compound 4a, {[(1R,4aR)-1,4a-dimethyl-7-(propan-2-yl)-1,2,3,4,4a,4b,5,6,10,10a-decahydrophenanthren-1-yl]methyl}amine]
STAT3 pathway (pSTAT3): decrease pSTAT3 expression at all doses

CC(C)C1=CC2=CCC3[C@](C)(CCC[C@@]3(C)C(=O)O)C2CC1 (stereo partly drawn) [Abietic acid, (1R,4aR)-1,4a-dimethyl-7-(propan-2-yl)-1,2,3,4,4a,4b,5,6,10,10a-decahydrophenanthrene-1-carboxylic acid, reference compound]
STAT3 pathway (pSTAT3): unable to affect
